Where a name gives a salt, the structure may show the parent alone.
Columns and labels:
[1] = test system: ileum shrinkage induced by leukotoriene; experiment: inhibitory effect of the test compounds on the ileum shrinkage induced by leukotriene; assay type: cell-based, guinea pigs; conditions: Cavia porcellus; test compound 10^-7 M; leukotoriene 10^-8 M; isolated ileum, Magnus tank, Tyrode solution; read-out: Inhibition ratio against shrinkage by leukotriene
Method: (§1) Ileum samples removed from guinea pigs were suspended isotonically in a Magnus tank containing a 95% O2 and 5% CO2 saturated Tyrode solution to determine inhibitory effect of the test compounds (10^-7 M) on the ileum shrinkage induced by histamine (10^-5 M) or leukotoriene (10^-8 M). The inhibitory ratio (%) was determined by the following formula. [formula]

[2] = test system: ileum shrinkage induced by histamine; experiment: inhibitory effect of the test compounds on the ileum shrinkage induced by histamine; assay type: cell-based, guinea pigs; conditions: Cavia porcellus; test compound 10^-7 M; histamine 10^-5 M; isolated ileum, Magnus tank, Tyrode solution; read-out: Inhibition ratio against shrinkage by histamine
Method: as §1

Row | SMILES | inhibition at 0.1 µM [1] [%] | inhibition at 0.1 µM [2] [%]
1 | C=CCc1c(OCCCN2CCC(OC(c3ccccc3)c3ccccc3)CC2)ccc2c(C)cc(=O)oc12 [Example 7] | 51 | 67
2 | CCCc1c(OCC(O)CN2CCC(OC(c3ccc(Cl)cc3)c3ccccn3)CC2)ccc(C(C)=O)c1O (stereo not drawn) [Example 45] | 30 | 40
3 | CCCc1c(OCC(O)CN2CCC(OC(c3ccc(F)cc3)c3ccc(F)cc3)CC2)ccc(C(C)=O)c1O (stereo not drawn) [Example 44, 1-{(3-(4-acetyl-3-hydroxy-2-n-propylphenoxy)-2-hydroxy]propyl}-4-[bis(4-fluorophenyl)methoxy]piperidine fumarate] | 35 | 43
4 | C=CCc1c(OCCCN2CCC(OC(c3ccc(Cl)cc3)c3ccccn3)CC2)ccc(C(C)=O)c1O (stereo not drawn) [Example 38] | 33 | 32
5 | C=CCc1c(OCC(O)CN2CCC(OC(c3ccc(Cl)cc3)c3ccccn3)CC2)ccc(C(C)=O)c1O (stereo not drawn) [Example 47] | 36 | 38
6 | COc1cc(C(C)=O)ccc1OCCCN1CCC(OC(c2ccccc2)c2ccccc2)CC1 [Example 2] | 30 | 96
7 | COC(=O)c1ccc(OCCCN2CCC(OC(c3ccccc3)c3ccccc3)CC2)cc1 [Example 14] | 39 | 69
8 | C=CCc1c(OCCCN2CCC(OC(c3ccccc3)c3ccccc3)CC2)ccc2c(=O)cc(C(=O)OCCCC)oc12 [Example 41] | 31 | 31
9 | COC(=O)c1cc(=O)c2cc(C(C)C)cc(NC(=O)CCCN3CCC(OC(c4ccc(F)cc4)c4ccc(F)cc4)CC3)c2o1 [Example 60] | 37 | 58
